≈ marks a conversion by molar mass, not a printed value.
Tested on: kinetic aqueous solubility, PBS pH 7.4, LC-UV/MS
Assay: Identifying a Potential Treatment of Ataxia-Telangiectasia: Solubility Profiling
Conditions: stronger effect = higher value
Text: Ataxia-telangiectasia (A-T) is a devastating and progressive disease for which, there is no cure. Although A-T is a multisystem disease, it is stereotyped characterized by its neurological symptoms such as truncal ataxia, due to cerebellar cortical degeneration of the Purkinje and granule cells. The underlying genetic cause of A-T is null mutations in the ATM (A-T mutated) gene. ATM is a nuclear serine/threonine kinase that functions as a master regulator of the cellular responses to double strand breaks (DSBs) in the DNA. Upon activation by DSBs, ATM phosphorylates a plethora of downstream targets, including KAP-1 on […]. KAP-1 phosphorylation occurs shortly in response to DSBs and mediates global chromatin relaxation, which facilitates DSB repair. The assay provider and the NCGC have developed assays to discover small molecules that compensate for the loss of ATM and have discovered a probe. The resulting probe is further characterized in several ADME assays. This bioassay provides profiling data on aqueous kinetic solubility (PBS @ pH 7.4) of one of the lead compounds developed in the ATM project. NIH Chemical Genomics Center [NCGC] NIH Molecular Libraries Probe Centers Network [MLPCN] MLPCN Grant: MH089030-01 Assay Submitter (PI): Wei Zheng and Yosef Shiloh
1. […] Concentration of the supernatant was determined by LC-UV or LC-MS/MS

`CC(=O)c1c(O)c(C)c(O)c(Cc2c(O)c3c(c(C(=O)/C=C/c4ccccc4)c2O)OC(C)(C)C=C3)c1O` was tested, and the solubility was 250 µM (≈ 129 µg/mL).

From PubChem BioAssay AID504780 (National Center for Advancing Translational Sciences (NCATS), 2011)
